Drawing on patent US20250163104A1, “MACROCYCLIC IMMUNOMODULATORS” (priority 2021, published 2025), this text covers IC50 for five compounds.

Where a SMILES comes first, the peptide text is derived from it. Bridges are numbered along the chain shown (N, C = ends). [ ]: non-standard residue; d: D form. The star is where a group is joined. Bip = N[C@@H](Cc1ccc(-c2ccccc2)cc1)C(=O)O; Phe(3-Me) = Cc1cccc(C[C@H](N)C(=O)O)c1; mTyr = N[C@@H](Cc1cccc(O)c1)C(=O)O; Benzoyl(4-F) = O=C(c1ccc(F)cc1)*; Cha = N[C@@H](CC1CCCCC1)C(=O)O; Carboxymethyl = O=C(O)C*; Orn = NCCC[C@H](N)C(=O)O; Dab = NCC[C@H](N)C(=O)O; Dap = NC[C@H](N)C(=O)O

This test deals with T1, human PD-1 / PD-L1-Ig binding on Jurkat cell line over-expressing human PD-1 (Jurkat-PD-1) (Homo sapiens, UniProt Q15116).
T1 construct: expressed in transfected cells; host or cells: Jurkat
T1 sequence (Q15116 25-288): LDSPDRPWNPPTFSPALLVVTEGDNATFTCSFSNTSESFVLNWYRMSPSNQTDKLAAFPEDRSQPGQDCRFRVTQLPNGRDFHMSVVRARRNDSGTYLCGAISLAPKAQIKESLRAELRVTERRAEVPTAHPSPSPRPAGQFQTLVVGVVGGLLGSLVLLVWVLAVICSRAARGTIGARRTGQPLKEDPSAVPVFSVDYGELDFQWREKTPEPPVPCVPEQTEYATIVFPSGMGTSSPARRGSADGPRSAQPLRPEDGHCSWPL
Briefly: Jurkat-PD-1 Cell Binding High-Content Screening Assay (CBA). Conditions: Jurkat-PD-1 cells, PE-labeled PD-L1-Ig 20 nM final; read-out: Jurkat HPD1_PDL1 IC50. It is filed as cell-based. In outline:
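Binding of fluorescent PD-L1-Ig (phycoerythrin linked via the Ig tag, 20 nM final) to PD-1-overexpressing Jurkat cells was imaged after a 2 h, 37° C compound pretreatment and 1 hour ligand incubation.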
With `CCNC(=O)[C@H](CCN)NC(=O)[C@@H]1CSCC(=O)N[C@@H](CN)C(=O)N[C@@H](Cc2ccc(OCC(=O)O)cc2)C(=O)N[C@@H](CC(=O)O)C(=O)N[C@@H](Cc2cccc(O)c2)C(=O)N[C@@H](Cc2ccc(O)cc2)C(=O)N[C@@H](Cc2ccc(-c3ccccc3)cc2)C(=O)N[C@@H](Cc2ccc(O)cc2)C(=O)N[C@@H](CCCN)C(=O)N[C@H](CC(C)C)C(=O)N[C@@H](CCN)C(=O)N[C@@H](CC2CCCCC2)C(=O)N[C@@H](C(C)C)C(=O)N[C@@H](CCCN)C(=O)N1` [Compound 2047] ({CH2CO}-[Dap]Y(Carboxymethyl)D[mTyr]Y[Bip]Y[Orn][dL][Dab][Cha]V[Orn]C[Dab]-NHEt; thioether N-14), the IC50 stood at 2.8 nM.
Turning to `Cc1cccc(C[C@@H]2NC(=O)[C@H](CC(=O)O)NC(=O)[C@H](Cc3ccc(OCC(=O)O)cc3)NC(=O)[C@H](CNC(=O)c3ccc(F)cc3)NC(=O)CSC[C@@H](C(N)=O)NC(=O)[C@H]([C@@H](C)O)NC(=O)[C@H](C(C)C)NC(=O)[C@H](CC3CCCCC3)NC(=O)[C@H](CCN)NC(=O)[C@@H](CC(C)C)NC(=O)[C@H](CCCN)NC(=O)[C@H](Cc3ccc(OCC(=O)O)cc3)NC(=O)[C@H](Cc3ccc(-c4ccccc4)cc3)NC(=O)[C@H](Cc3ccc(O)cc3)NC2=O)c1` [Compound 2048] ({CH2CO}-[Dap](Benzoyl(4-F))Y(Carboxymethyl)D[Phe(3-Me)]Y[Bip]Y(Carboxymethyl)[Orn][dL][Dab][Cha]VTC-NH2; thioether N-14), the half-maximal inhibitory concentration (IC50) came to 40.2 nM.
Turning to `Cc1cccc(C[C@@H]2NC(=O)[C@H](CC(=O)O)NC(=O)[C@H](Cc3ccc(OCC(=O)O)cc3)NC(=O)[C@H](CCNC(=O)c3ccc(F)cc3)NC(=O)CSC[C@@H](C(N)=O)NC(=O)[C@H]([C@@H](C)O)NC(=O)[C@H](C(C)C)NC(=O)[C@H](CC3CCCCC3)NC(=O)[C@H](CCN)NC(=O)[C@@H](CC(C)C)NC(=O)[C@H](CCCN)NC(=O)[C@H](Cc3ccc(OCC(=O)O)cc3)NC(=O)[C@H](Cc3ccc(-c4ccccc4)cc3)NC(=O)[C@H](Cc3ccc(O)cc3)NC2=O)c1` [Compound 2049] ({CH2CO}-[Dab](Benzoyl(4-F))Y(Carboxymethyl)D[Phe(3-Me)]Y[Bip]Y(Carboxymethyl)[Orn][dL][Dab][Cha]VTC-NH2; thioether N-14), the IC50 amounted to 79.3 nM.
The result for `Cc1cccc(C[C@@H]2NC(=O)[C@H](CC(=O)O)NC(=O)[C@H](Cc3ccc(OCC(=O)O)cc3)NC(=O)[C@H](CCCNC(=N)N)NC(=O)CSC[C@@H](C(N)=O)NC(=O)[C@H]([C@@H](C)O)NC(=O)[C@H](C(C)C)NC(=O)[C@H](CC3CCCCC3)NC(=O)[C@H](CCN)NC(=O)[C@@H](CC(C)C)NC(=O)[C@H](CCCNC(=O)c3ccc(F)cc3)NC(=O)[C@H](Cc3ccc(OCC(=O)O)cc3)NC(=O)[C@H](Cc3ccc(-c4ccccc4)cc3)NC(=O)[C@H](Cc3ccc(O)cc3)NC2=O)c1` [Compound 2050] ({CH2CO}-RY(Carboxymethyl)D[Phe(3-Me)]Y[Bip]Y(Carboxymethyl)[Orn](Benzoyl(4-F))[dL][Dab][Cha]VTC-NH2; thioether N-14) reads 121 nM; that for `CC(=O)NCCC[C@@H]1NC(=O)[C@H](Cc2ccc(OCC(=O)O)cc2)NC(=O)[C@H](Cc2ccc(-c3ccccc3)cc2)NC(=O)[C@H](Cc2ccc(O)cc2)NC(=O)[C@H](Cc2cccc(C)c2)NC(=O)[C@H](CC(=O)O)NC(=O)[C@H](Cc2ccc(OCC(=O)O)cc2)NC(=O)[C@H](CCCNC(=N)N)NC(=O)CSC[C@@H](C(N)=O)NC(=O)[C@H]([C@@H](C)O)NC(=O)[C@H](C(C)C)NC(=O)[C@H](CC2CCCCC2)NC(=O)[C@H](CCN)NC(=O)[C@@H](CC(C)C)NC1=O` [Compound 2051] ({CH2CO}-RY(Carboxymethyl)D[Phe(3-Me)]Y[Bip]Y(Carboxymethyl)[Orn](Ac)[dL][Dab][Cha]VTC-NH2; thioether N-14), 48.5 nM.
